This is an account of results in publication PMC12162769, “Synthesis and Evaluation of a Hybrid Miltefosine-Silver Nanoparticle Complex: Synergistic Interaction with Benznidazole Against Trypanosoma cruzi” (Acta Parasitologica, 2025).

The structures appear in SMILES notation. pIC50: −log10 of the molar value. ≈ marks a conversion by molar mass, not a printed value.

Data set [1] deals with T. cruzi ATCC 50825 strain epimastigotes. Description: Antitrypanosomal activity, broth microdilution with MTT viability (IC50). The format is cell-based, Trypanosoma cruzi. As to conditions: for SI (selectivity index): IC50 fibroblasts (L929) / IC50 T. cruzi epimastigotes; for IC50: Trypanosoma cruzi. How it is done: The Trypanosoma cruzi ATCC 50825 reference strain and the L929 mouse fibroblast cell line (American Type Culture Collection, USA) used in this study were obtained from the Parasite Bank of […] Bayar University Faculty of Medicine. […] For the determination of antitrypanosomal activity, 100 μL of RPMI-1640 medium was distributed into each well of sterile, flat-bottom, 96-well microplates. Serial dilutions of the hybrid NP complex were prepared in the range of 2500-19.5 μg/mL, miltefosine in the range of 128-1 μg/mL, and benznidazole in the range of 320-0.30 μg/mL. […] The morphological structure and motility of the epimastigotes in all wells were observed under an inverted microscope. The lowest concentration of the active substance at which all parasites were immobile and their morphology was disrupted was determined as the minimum parasiticidal concentration (MPC). […] Absorbance values were measured at 570 nm using a Thermo Varioskan model spectrophotometer (USA). IC50 values indicating antitrypanosomal activity were calculated using GraphPad Prism 8.4.2 software. Efficacy tests were repeated three times on different days.

Data set [2] has the same test system. Description: Minimum parasiticidal concentration (MPC), motility and morphology under inverted microscope. The format is cell-based, Trypanosoma cruzi.
Data set [3] is described as follows: Cytotoxic activity, MTT assay. The format is cell-based. The note with it: mouse, L929 fibroblast cells, read-out: IC50 L929 (cytotoxicity). The method, then:
The Trypanosoma cruzi ATCC 50825 reference strain and the L929 mouse fibroblast cell line (American Type Culture Collection, USA) used in this study were obtained from the Parasite Bank of […] Bayar University Faculty of Medicine. Fibroblasts preserved in liquid nitrogen were treated with RPMI-1640 and passaged into RPMI-1640 medium containing 10% FBS (fetal bovine serum). The cells were incubated at 37 °C with 5% CO2 for 48 h. The number and viability of proliferating cells were determined using Trypan Blue staining and a hemocytometer. A 100 μL cell suspension containing 10^5 cells/mL was distributed into 96-well microplates. Serial dilutions of the […] suspension (final concentration range: 5000-39 μg/mL), miltefosine (final concentration range: 512-0.125 μg/mL), and benznidazole (final concentration range: 640-0.60 μg/mL) were prepared in a separate microplate and transferred to the microplates containing the cells. The plates were incubated at 37 °C with 5% CO2 for 48 h. […] IC50 values indicating cytotoxic activity were calculated using GraphPad Prism 8.4.2 software. The cytotoxic activity tests were repeated three times on different days.

For a further data set, the system named is T. cruzi trypomastigote. Set-up: method as in Gulin et al. (2022) [17]. As to conditions: trypomastigote forms; ref Gulin et al. (2022) [17]; cited from earlier work.
Another data set concerns T. cruzi amastigote. Also on record: method as in Gulin et al. (2022) [17]. The note with it: amastigote forms; ref Gulin et al. (2022) [17]; cited from earlier work.
Setting [4] is: ATCC50825, 24 h, 24 h, epimastigotes.
[5] abbreviates: ATCC50825, 48 h, 48 h, epimastigotes.
The mark [6] stands for this setting: ATCC50825, 72 h, 72 h, epimastigotes.

What is called IC50 is the concentration needed to halve the response being measured. In the case of `O=C(Cn1ccnc1[N+](=O)[O-])NCc1ccccc1` [Benznidazole], the “SI (selectivity index)” value in data set [1] (24 h) was found to be 15; in data set [1] (48 h), 18.2; in data set [1] (72 h), 23. Moreover, the IC50 came to 67.1 µg/mL (≈ 258 µM) in data set [1] (setting [4]), 45 µg/mL (≈ 173 µM) in data set [1] (setting [5]) and 34.5 µg/mL (≈ 133 µM) in data set [1] (setting [6]). Also, the “MPC (minimum parasiticidal concentration)” value is listed as 155 µg/mL in data set [2] (24 h), 155 µg/mL in data set [2] (48 h) and 77.5 µg/mL in data set [2] (72 h). In addition, the IC50 at 24 h in data set [3] was found to be 1010 µg/mL (≈ 3880 µM). Moreover, the IC50 at 48 h in data set [3] worked out at 822 µg/mL (≈ 3160 µM). Further, the IC50 at 72 h in data set [3] worked out at 807 µg/mL (≈ 3100 µM).

The pIC50 is the IC50 on a negative log10 scale, so that one unit is a factor of ten. Turning to `CCCCCCCCCCCCCCCCOP(=O)([O-])OCC[N+](C)(C)C` [Miltefosine], the figures for the pIC50 in the data set on T. cruzi trypomastigote and in the data set on T. cruzi amastigote were 6.26 and 6.32, respectively. The entries for the “SI (selectivity index)” value in data set [1] (24 h), in data set [1] (48 h) and in data set [1] (72 h) were 1.5, 2.2 and 4.2, respectively. For the same compound, in data set [1] (72 h, epimastigotes), the “IC50 T. cruzi” value came to 6.42 µg/mL (≈ 15.8 µM). Besides, the IC50 in data set [1] (setting [4]) stood at 26.2 µg/mL (≈ 64.2 µM); in data set [1] (setting [5]), 15 µg/mL (≈ 36.8 µM); in data set [1] (setting [6]), 6.42 µg/mL (≈ 15.8 µM). For the same compound, the “Selectivity (SI) as worded” value in data set [1] (over 24, 48 and 72 h, L929 vs T. cruzi epimastigotes) is on record as more than 1. The results for the “MPC (minimum parasiticidal concentration)” value in data set [2] (24 h), in data set [2] (48 h) and in data set [2] (72 h) were 128 µg/mL, 128 µg/mL and 64 µg/mL, respectively. The IC50 at 24 h in data set [3] came out at 38 µg/mL (≈ 93.4 µM). For the same compound, the IC50 at 48 h in data set [3] came out at 33.5 µg/mL (≈ 82.2 µM). Moreover, the IC50 at 72 h in data set [3] is 27 µg/mL (≈ 66.2 µM).
